Results taken from US11944605B2, “Rapamycin analogs and uses thereof” (Janssen Pharmaceutica NV, priority 2018, dated 2024).
Values after ≈ are worked out from the molar mass of the structure shown. “Also recorded” adds a separate entry of the source. Like-named read-outs stand apart in the source and are kept apart here.

What was measured:
[1] = test system: mTORC1 pathway in wild-type MEF cells; assay: Western blot, mTORC1 pathway in wild-type MEF cells; format: cell-based, mouse
Protocol: (§1) The methods employed were substantially similar to those described above. Compounds were evaluated in PC3 cells, Jurkat cells, wild-type mouse embryotic fibroblast (MEF) cells, tuberous sclerosis 2 (TSC2) negative (TSC −/−) MEF cells, and tuberous sclerosis 2 (TSC2) positive (TSC +/+) MEF cells. Cells were incubated with compounds of the present invention for various time periods (e.g., 5 minutes, 15 minutes, 30 minutes, 90 minutes, 24 hours, or 48 hours), and evaluated according to known methodologies, such as those herein described.

[2] = test system: 4E-BP1 phosphorylation in PC3 cells; assay: Western blot, 4E-BP1 phosphorylation in PC3 cells; format: cell-based; conditions: 24 hours
[3] = test system: 4E-BP1 phosphorylation in TSC+/+ MEF cells; assay: Western blot, 4E-BP1 phosphorylation in TSC+/+ MEF cells; format: cell-based, mouse; conditions: 24 hours
Protocol: as §1

[4] = test system: mTORC1 pathway in Jurkat cells; assay: Western blot, mTORC1 pathway in Jurkat cells; format: cell-based; conditions: 24 hrs
Protocol: as §1

[5] = test system: mTORC1 pathway (pS6K1 T389) in PC3 cells; assay: Western blot, mTORC1 pathway (pS6K1) in PC3 cells; format: cell-based; conditions: PC3 cells
Outline: (§2)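 Triton lysates analysed by Western blot for pS6K1 and pAkt, detected with IRDye 800 anti-rabbit secondary on a Li-Cor imager.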

[6] = test system: mTORC1 pathway in tuberous sclerosis 2 (TSC2) positive (TSC+/+) MEF cells; assay: Western blot, mTORC1 pathway in TSC+/+ MEF cells; format: cell-based, mouse
Protocol: as §1

IFN-γ production = IFN-γ production in allogenic mixed lymphocyte reaction; format: cell-based; conditions: for IC50: read-out: IFN-γ Inhibition IC50s
Protocol: Assessment of Effect on IFN-γ Production in Allogenic Mixed Lymphocyte Reaction
The effect of rapamycin, everolimus, I-29, and I-117 on IFN-y production was evaluated in an allogenic mixed lymphocyte reaction (E.g., Eleftheriadis, T. et al., Int. J. Mol. Med., 37(5): 1412-20 (2016) https://doi.org/10.3892/ijmm.2016.2547).

[7] = test system: mTORC2 pathway (Akt phosphorylation) in PC3 cells; assay: Western blot, mTORC2 pathway (pAkt) in PC3 cells; format: cell-based; conditions: 24 hours
Outline: as §2

[8] = test system: mTORC1 pathway in tuberous sclerosis (TSC2) negative (TSC−/−) MEF cells; assay: Western blot, mTORC1 pathway in TSC−/− MEF cells; format: cell-based, mouse
Protocol: as §1

[9] = test system: mTORC2 (Akt phosphorylation) in TSC+/+ MEF cells; assay: Western blot, mTORC2 pathway (pAkt) in TSC+/+ MEF cells; format: cell-based, mouse
Protocol: as §1

[10] = Solubility in 100 mM phosphate buffer (pH 7.4); format: physicochemical; conditions: pH 7.4, aqueous buffer
Text: The compound numbers correspond to the compound numbers in Table 1.

[11] = test system: pS6K1 (p-p70 S6 Kinase (Thr389)) in MCF-7 cells; assay: AlphaLISA Ultra pS6K1 Assay; format: cell-based; conditions: Homo sapiens, 1.5 h; MCF7 cells, 90 min
Outline: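 AlphaLISA Ultra read-out (acceptor beads 2 h, then donor beads 2 h) on thawed lysates of MCF-7 cells. Cells had 20–24 h after seeding and a 2 h medium change, then 90 min of compound exposure at 0.5% final DMSO, with lysates stored at −80 °C.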

mTORC1 over mTORC2 = assay: mTORC1 selectivity over mTORC2 at 24 hrs (Western blot based pS6K1 and pAKT assay); format: cell-based; conditions: 24 hrs
[12] = test system: pAKT (p-Akt 1/2/3 (Ser473)) in MCF-7 cells; assay: AlphaLISA Ultra pAKT Assay; format: cell-based; conditions: Homo sapiens, 1.5 h; MCF7 cells, 90 min
[13] = Pharmacokinetic properties in C57Bl/6 mice; format: in vivo; conditions: mouse, plasma; for half-life: read-out: Terminal T1/2 (converted)
Protocol: Pharmacokinetic Properties
The pharmacokinetic properties of compounds of the present invention were evaluated in C57Bl/6 mice and compared with rapamycin. Animals were fasted overnight prior to administration of I-29 or rapamycin (1 mg/kg IV, 10 mg/kg PO, or 2 mg/kg IP). Animals were bled at time intervals for up to 48 hours following administration of compounds. Whole blood from each mouse was indivisually collected in polypropylene tubes and immediately centrifuged. Alloquates of the separated plasma were promptly prepared for HPCL analysis.

[14] = test system: mTORC2 (Akt phosphorylation) in wild-type MEF cells; assay: Western blot, mTORC2 pathway (pAkt) in wild-type MEF cells; format: cell-based, mouse; conditions: 24 hours
Protocol: as §1

Structure (SMILES) | inhibition of the mTORC1 pathway ([1]; 24 hours) | inhibition of 4E-BP1 phosphorylation [2] | inhibition of 4E-BP1 phosphorylation [3] | inhibition of the mTORC1 pathway ([5]; 24 hours) | inhibition of the mTORC1 pathway ([6]; 90 minutes) | inhibition of the mTORC1 pathway ([6]; 24 hours) | IC50 (IFN-γ production) | inhibition of mTORC2 (Akt phosphorylation) [7] | inhibition of the mTORC1 pathway ([8]; 24 hours) | inhibition of mTORC2 (Akt phosphorylation) ([9]; 24 hours) | IC50 [11] | mTORC1 selective @ 24 hrs (mTORC1 over mTORC2) | inhibition of mTORC2 (Akt phosphorylation) [14] | also measured
CO[C@H]1C[C@@H]2CC[C@@H](C)[C@@](O)(O2)C(=O)C(=O)N2CCCC[C@H]2C(=O)O[C@H]([C@H](C)C[C@@H]2CC[C@@H](OCCO)[C@H](OC)C2)CC(=O)[C@H](C)/C=C(\C)[C@@H](O)[C@@H](OC)C(=O)[C@H](C)C[C@H](C)/C=C/C=C/C=C/1C [Everolimus, everolimus, reference compound] | strong inhibition | no inhibition | no inhibition | strong inhibition | strong inhibition | strong inhibition | 15.2 nM | dose dependent inhibition | strong inhibition |  |  |  |  | inhibition of the mTORC1 pathway ([1]; 90 minutes): strong inhibition; inhibition of the mTORC1 pathway [4]: strong inhibition; inhibition of the mTORC1 pathway ([5]; 90 minutes): strong inhibition; inhibition of IFN-γ production (IFN-γ production): significantly inhibited; inhibition of the mTORC1 pathway ([8]; 90 minutes): strong inhibition
COCCOCCOC1C[C@@H]2CC[C@@H](C)[C@@](O)(O2)C(=O)C(=O)N2CCCC[C@H]2C(=O)O[C@H]([C@H](C)C[C@@H]2CC[C@@H](OCCO)[C@H](OC)C2)CC(=O)[C@H](C)/C=C(\C)[C@@H](O)[C@@H](OC)C(=O)[C@H](C)C[C@H](C)/C=C/C=C/C=C/1C (stereo partly shown) [I-2] |  | no inhibition |  | strong inhibition |  | moderate concentration dependent inhibition |  | do not inhibit | strong inhibition | do not inhibit | 0.1 to 1 nM | YES |  | solubility [10]: 30 to 60 µM (≈ 31.4 to 62.8 µg/mL); IC50 [12]: ≥ 100 nM
CO[C@@H]1C[C@H](C[C@@H](C)[C@@H]2CC(=O)[C@H](C)/C=C(\C)[C@@H](O)[C@@H](OC)C(=O)[C@H](C)C[C@H](C)/C=C/C=C/C=C(\C)[C@@H](OCCOCCOCCO)C[C@@H]3CC[C@@H](C)[C@@](O)(O3)C(=O)C(=O)N3CCCC[C@H]3C(=O)O2)CC[C@H]1O [I-29] |  |  |  |  |  |  | > 3000 nM |  |  |  |  |  |  | AUC(0-inf) ([13]; 1 mg/kg IV): 18400 ng·h/mL; AUC(0-t) ([13]; 1 mg/kg IV): 17600 ng·h/mL; MRT inf ([13]; 1 mg/kg IV): 15.9 h; clearance ([13]; 1 mg/kg IV): 0.9 mL/min/kg; half-life ([13]; 1 mg/kg IV): 14.7 h; Vd ([13]; 1 mg/kg IV, read-out: Vss): 0.863 L/kg; AUC(0-inf) ([13]; 2 mg/kg IP): 16900 ng·h/mL; AUC(0-t) ([13]; 2 mg/kg IP): 16600 ng·h/mL; Cmax ([13]; 2 mg/kg IP): 2590 ng/mL; Tmax ([13]; 2 mg/kg IP): 0.25 h; half-life ([13]; 2 mg/kg IP): 12.6 h; AUC(0-inf) ([13]; 10 mg/kg PO): 31700 ng·h/mL; AUC(0-t) ([13]; 10 mg/kg PO): 31200 ng·h/mL; Cmax ([13]; 10 mg/kg PO): 3290 ng/mL; Tmax ([13]; 10 mg/kg PO): 0.25 h; half-life ([13]; 10 mg/kg PO): 11 h
COCCOCCO[C@H]1C[C@@H]2CC[C@@H](C)[C@@](O)(O2)C(=O)C(=O)N2CCCC[C@H]2C(=O)O[C@H]([C@H](C)C[C@@H]2CC[C@@H](OCCO)[C@H](OC)C2)CC(=O)[C@H](C)/C=C(\C)[C@@H](O)[C@@H](OC)C(=O)[C@H](C)C[C@H](C)/C=C/C=C/C=C/1C [I-105, (22E,24E,26E,27E,35R,36S,37R,38R,40S,42S,44S,45S,46R,47R,56R)-46, 56-dihydroxy-45-[(1R)-2-[(1S,3R, 4R)-4-(2-hydroxyethoxy)-3-methoxy-cyclohexyl]-1-methyl-ethyl]-47-methoxy-44-[2-(2-methoxyethoxy)ethoxy]-35,36,37,38,48,49-hexamethyl-66, 67-dioxa-57-azatricyclohexatriaconta-22,24,26(48),27(49)-tetraene-50, 51,52,53,54-pentone] | moderate inhibition; also recorded: strong inhibition |  | no inhibition |  | strong inhibition | strong inhibition |  |  |  | do not inhibit | < 0.1 nM | YES | do not inhibit | inhibition of mTORC2 (Akt phosphorylation) ([9]; 90 minutes): does not inhibit
CO[C@@H]1C[C@H](C[C@@H](C)[C@@H]2CC(=O)[C@H](C)/C=C(\C)[C@@H](O)[C@@H](OC)C(=O)[C@H](C)C[C@H](C)/C=C/C=C/C=C(\C)[C@@H](OCCOCCOCCOCCO)C[C@@H]3CC[C@@H](C)[C@@](O)(O3)C(=O)C(=O)N3CCCC[C@H]3C(=O)O2)CC[C@H]1OCCO [I-115, (21E,23E,25E,26E,38R,39S,40R,41R,43S,45S,47S,48S,49R,50R,59R)-49, 59-dihydroxy-47-[2-[2-[2-(2-hydroxyethoxy)ethoxy]ethoxy]ethoxy]-48-[(1R)-2-[(1S,3R, 4R)-4-(2-hydroxyethoxy)-3-methoxy-cyclohexyl]-1-methyl-ethyl]-50-methoxy-38,39,40,41,51,52-hexamethyl-70, 71-dioxa-60-azatricyclohexatriaconta-21,23,25(51),26(52)-tetraene-53, 54,55,56,57-pentone] | moderate concentration dependent inhibition |  |  | strong inhibition |  | moderate concentration dependent inhibition |  | does not inhibit |  | does not inhibit | 0.1 to 1 nM | YES | does not inhibit | 
